{"source": "paper PMC7614683", "about": "“A small molecule PI3Kα activator for cardioprotection and neuroregeneration” (Nature, 2023)", "key": {"PI3Kα-WT A549 cells": {"test_system": "PI3Kα-WT A549 cells", "test": "TIRF microscopy of PIP3 reporter, PI3Kα-WT A549", "format": "cell-based, human", "conditions": "1938, then BYL719 0.5 μM", "procedure": "Phosphoinositide reporters used were GFP-PH-ARNO^I303Ex2 (PIP3 reporter[41]) and mCherry-cPH-TAPP1x3 (PI(3,4)P2 reporter[41]). TIRF microscopy allows selective imaging of the small cell volume, including the plasma membrane, directly adjacent to the coverslip onto which cells have been seeded. HeLa or A549 cells were seeded in Matrigel-coated (Corning #354230; diluted in Opti-MEM at 1:50) 8-well chamber slides (glass bottom, 1.55 refractive index; Thermo Fisher Scientific #155409) at a density of 5,000 cells/well. […]\nImage analyses of total reporter intensities were performed with the Fiji open source image analysis package. The region of interest (ROI) corresponding to the footprint of the individual cell across time points were defined using minimal intensity projection to select only pixels present across all time points, following prior subtraction of camera noise (rolling ball method, radius = 500 pixels) and xy drift correction, intensity levels over time were measured. […] All other quantifications were performed using the open source software R/RStudio. The values plotted in Fig. 3d (iii) represent mean±SEM, following signal scaling to minimum and maximum values of the normalised fluorescence intensity for each time point (Fn(t)). […]"}, "adult rat DRG neurons": {"test_system": "adult rat DRG neurons", "test": "Neurite outgrowth in dissociated adult rat dorsal root ganglion cultures", "format": "cell-based", "conditions": "72h; BYL719 500 nM with 1938 above 10^-7 M", "excerpt": "Dissociated adult rat dorsal root ganglion (DRG) cultures were used as an in vitro model for neuroregeneration[80],[81]. DRG neurons were isolated from adult male (>250g) Wistar rats as described, with DRGs from each rat cultured separately. Following culling via schedule 1 (rising concentration of CO2), the spinal column was removed and stored in PBS on ice. Cord tissue was removed to expose the DRGs and roots in the intervertebral foramen and the DRGs removed with forceps and scalpel under a dissecting microscope (Olympus SZ40). DRGs were manually cleaned by removal of roots, capsule and capillaries with forceps and then placed in DMEM supplemented with P/S. DRGs were treated with 0.125% collagenase type IV solution at 37°C for 90 min, and then mechanically dissociated by trituration using a 1 ml pipette. The collagenase solution was removed by 2 rounds of centrifugation in complete DMEM (DMEM with 1% P/S and 10% FBS) at 400 xg for 5 min, followed by resuspension of the DRG cell pellet in complete DMEM supplemented with 0.01 mM cytosine arabinoside. DRGs were plated in 75-cm[2] flasks coated with 0.1 mg/ml poly-D-lysine and incubated at 37°C, 5% CO2. […] 9 fields per well were captured and analysed using the CSIRO Neurite Analysis 2 […] in Columbus analysis software (Perkin Elmer). […]"}}, "data": [{"smiles": "Cc1nc(NC(=O)N2CCC[C@H]2C(N)=O)sc1-c1ccnc(C(C)(C)C(F)(F)F)c1", "note": "[BYL719, reference compound]", "values": [{"measurement": "plasma membrane PIP3 (biosensor)", "setting": "PI3Kα-WT A549 cells", "result": "fully and acutely neutralized"}, {"measurement": "neurite outgrowth (total length of neurites)", "setting": "adult rat DRG neurons", "result": "partially reduced the increase in neurite outgrowth"}]}]}
